From US20250228239A1, “MOLECULES HAVING PESTICIDAL UTILITY, AND INTERMEDIATES, COMPOSITIONS, AND PROCESSES, RELATED THERETO” (priority 2024, published 2025)

Columns and labels:
[1] = tested on: Cabbage Looper (Trichoplusia ni, TRIPNI); assay: Bioassays on Cabbage Looper (CL), 128-well diet tray assay; type: in vivo; settings: Trichoplusia ni; Cabbage Looper; rating class; read-out: CL
Outline: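 One to five second-instar larvae per well on artificial diet surface-treated with 50 μg/cm^2 test molecule (applied in 90:10 acetone-water, dried). Held 5–7 days at 25° C, 14:10 light-dark; percent mortality recorded per well and averaged over eight wells.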

[2] = tested on: Beet Armyworm (Spodoptera exigua, LAPHEG); assay: Bioassays on Beet Armyworm (BAW), 128-well diet tray assay; type: in vivo; settings: Spodoptera exigua; Beet Armyworm; rating class; read-out: BAW
Outline: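 Percent larval mortality, averaged across eight wells, scored after five to seven days at 25° C. under 14:10 light-dark. Each well held one to five second instars feeding on diet dosed at 50 μg/cm^2 with compound from 90:10 acetone-water, solvent dried off.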

SMILES	pest or weed control at 50 µg/cm2 [1]	pest or weed control at 50 µg/cm2 [2]
Cc1cc(NC(=O)[C@H]2[C@H](c3ccc(F)c(C(F)(F)F)c3)C2(Cl)Cl)cc(C(=O)Nc2ccc(F)c(NC(=O)C(F)F)c2F)c1Cl [F1494, 2-Chloro-5-((1R,3R)-2,2-dichloro-3-(4-fluoro-3-(trifluoromethyl)phenyl)cyclopropane-1-carboxamido)-N-(3-(2,2-difluoroacetamido)-2,4-difluorophenyl)-3-methylbenzamide]	50 to 100%	50 to 100%
Cc1cc(NC(=O)[C@H]2[C@H](c3ccc(F)c(C(F)(F)F)c3)C2(Cl)Cl)cc(C(=O)Nc2ccc(F)c(NC(=O)C(F)(F)F)c2F)c1Cl [F1495, 2-Chloro-5-((1R,3R)-2,2-dichloro-3-(4-fluoro-3-(trifluoromethyl)phenyl)cyclopropane-1-carboxamido)-N-(2,4-difluoro-3-(2,2,2-trifluoroacetamido)phenyl)-3-methylbenzamide]	50 to 100%	50 to 100%
Cc1cc(NC(=O)[C@H]2[C@H](c3ccc(Cl)c(Cl)c3)C2(Cl)Cl)cc(C(=O)Nc2cc(NC(=O)C(F)F)c(F)cc2F)c1Cl [F1496, 2-Chloro-5-((1R,3R)-2,2-dichloro-3-(3,4-dichlorophenyl)cyclopropane-1-carboxamido)-N-(5-(2,2-difluoroacetamido)-2,4-difluorophenyl)-3-methylbenzamide]	50 to 100%	50 to 100%
Cc1cc(NC(=O)[C@H]2[C@H](c3ccc(Cl)c(Cl)c3)C2(Cl)Cl)cc(C(=O)Nc2cc(NC(=O)C(F)(F)F)c(F)cc2F)c1Cl [F1497, 2-Chloro-5-((1R,3R)-2,2-dichloro-3-(3,4-dichlorophenyl)cyclopropane-1-carboxamido)-N-(2,4-difluoro-5-(2,2,2-trifluoroacetamido)phenyl)-3-methylbenzamide]	50 to 100%	50 to 100%
Cc1cc(NC(=O)[C@H]2[C@H](c3cc(Cl)c(Cl)c(Cl)c3)C2(Cl)Cl)cc(C(=O)Nc2cc(NC(=O)C(F)F)c(F)cc2F)c1Cl [F1498, 2-Chloro-5-((1R,3R)-2,2-dichloro-3-(3,4,5-trichlorophenyl)cyclopropane-1-carboxamido)-N-(5-(2,2-difluoroacetamido)-2,4-difluorophenyl)-3-methylbenzamide]	50 to 100%	50 to 100%
Cc1cc(NC(=O)[C@H]2[C@H](c3cc(Cl)c(Cl)c(Cl)c3)C2(Cl)Cl)cc(C(=O)Nc2cc(NC(=O)C(F)(F)F)c(F)cc2F)c1Cl [F1499, 2-Chloro-5-((1R,3R)-2,2-dichloro-3-(3,4,5-trichlorophenyl)cyclopropane-1-carboxamido)-N-(2,4-difluoro-5-(2,2,2-trifluoroacetamido)phenyl)-3-methylbenzamide]	50 to 100%	50 to 100%
Cc1cc(NC(=O)[C@H]2[C@H](c3ccc(F)c(C(F)(F)F)c3)C2(Cl)Cl)cc(C(=O)Nc2cc(NC(=O)C(F)F)c(F)cc2F)c1Cl [F1500, 2-Chloro-5-((1R,3R)-2,2-dichloro-3-(4-fluoro-3-(trifluoromethyl)phenyl)cyclopropane-1-carboxamido)-N-(5-(2,2-difluoroacetamido)-2,4-difluorophenyl)-3-methylbenzamide]	50 to 100%	50 to 100%
Cc1cc(NC(=O)[C@H]2[C@H](c3ccc(F)c(C(F)(F)F)c3)C2(Cl)Cl)cc(C(=O)Nc2cc(NC(=O)C(F)(F)F)c(F)cc2F)c1Cl [F1501, 2-Chloro-5-((1R,3R)-2,2-dichloro-3-(4-fluoro-3-(trifluoromethyl)phenyl)cyclopropane-1-carboxamido)-N-(2,4-difluoro-5-(2,2,2-trifluoroacetamido)phenyl)-3-methylbenzamide]	50 to 100%	50 to 100%
